Experimental data published in patent US20170029451A1, “BRANCHED CHAIN ACYCLIC NUCLEOSIDE PHOSPHONATE ESTERS AND METHODS OF SYNTHESIS AND USES THEREOF” (CHIMERIX, INC., priority 2013, published 2017).
pEC50: −log10 of the molar value. Read-outs that look alike come from different tables or passages of the source.

Assays:
[1] = test system: Cowpox Virus (Strain Brighton); assay: microbe, parasite or virus in culture; assay type: cell-based; conditions: Fibroblast, read-out: CPXV EC50, μM
[2] = test system: HCMV UL54 resistant mutant D542E (HDP-CDV^R); assay: microbe, parasite or virus in culture; assay type: cell-based, Human Cytomegalovirus (HCMV)
BKV (Gardner strain) = assay: BKV EC50 in Vero cells (qPCR of supernatant BKV DNA); assay type: cell-based, BK virus (BKV); conditions: Betapolyomavirus hominis
Description: Costar 96-well tissue culture plates were seeded with 10,000 Vero cells/well in DMEM containing 2% Hyclone Standard Fetal Bovine Serum (FBS, Cat 5H30088.03) and 1% Hyclone Penicillin and Streptomycin. Outer wells were not used to minimize the edge-effect produced by extended incubations. Cells were inoculated with 115 BKV DNA copies/cell (ATCC, Gardner strain). Serial dilutions of test compounds were added to the cells and plates were incubated for 10 days at 37° C. in 5% CO2. After the 10-day incubation, 50 μL supernatant was mixed with 50 μL 2× lysis buffer that provided a final concentration 0.5 mg/mL protease K, 50 mM KCl, 10 mM Tris-Cl pH 8.0, 2.5 mM MgCl2, 0.45% IGEPAL, and 0.45% Tween-20 dissolved in DEPC-treated water. Each plate was incubated for 2 hours at 55° C. Supernatant BKV DNA was measured by quantitative polymerase chain reaction (qPCR) using forward and reverse BKV PCR primers, and a FAM-labeled probe. Absolute quantitation of viral copy number was performed using a standard curve with dilutions of a BKV DNA amplicon containing sequences homologous to the amplified fragment. The following qPCR amplification conditions were used: 1 cycle at 95° C. for 10 minutes, followed by 45 cycles of 95° C. for 15 seconds and 60° C. for 60 seconds. The qPCR reactions were performed using an Applied Biosystems 7500 real Time PCR System. Gen 5 software (BioTek Instruments, Inc.) was used to calculate the concentration which inhibited the viral DNA levels of BKV-infected Vero cells by 50% (EC50).

[3] = test system: Herpes Simplex Virus 1 (Strain E-377); assay: Plaque reduction assay, HSV-1 in human foreskin fibroblast cells; assay type: cell-based; conditions: Human alphaherpesvirus 1; Strain E-377, human foreskin fibroblast cells
in vitro = conditions: human
[4] = test system: Vaccinia Virus (Strain Copenhagen); assay: microbe, parasite or virus in culture; assay type: cell-based; conditions: Orthopoxvirus vaccinia, Fibroblast, read-out: VACV EC50, μM

Compound: CC(C)CCCCCCCCCCCCCCOCCCOP(=O)(O)COC(CO)Cn1ccc(=O)[nH]c1=O (centres unmarked) [Compound 12]
- EC50 [1]: > 10 µM
- EC50 ([2]; Human betaherpesvirus 5, Fibroblast, read-out: EC50 μM, Virus D542E (HDP-CDV^R), human foreskin fibroblast cells): ~5.41 µM
- EC90 ([2]; Human betaherpesvirus 5, Fibroblast, read-out: EC90 μM): > 10 µM
- efficacy on UL54 HCMV resistant variants ([2]; effect of mutations in UL54 which reduce efficacy for HDP-CDV): reduced
- pEC50 (BKV (Gardner strain); BKV in Vero cells (Table 7), read-out: BKV EC50): 5.81
- pEC50 (BKV (Gardner strain); Virus BKV, cell line Vero (Table 8), read-out: EC50): 5.68
- pEC50 [3]: < 4.30
- CC50 (in vitro; CPXV CC50, μM, Human Foreskin Fibroblast Cells, parallel to CPXV assay): > 10 µM
- CC50 (in vitro; HCMV CC50, μM): > 50 µM
- CC50 (in vitro; HSV-1 CC50, μM): > 50 µM
- EC50 [4]: > 10 µM
